Each structure is given as a SMILES string.

Holding throughout (type): ADME, organism-based
A short description of series [1]: Clearance in Sprague-Dawley rat at 10 mg/kg, po or 1 mg/kg, iv relative to hepatic blood flow. Particulars: in vivo.
Series [2] is described as follows: Volume of distribution at steady state in Sprague-Dawley rat at 10 mg/kg, po or 1 mg/kg, iv. Particulars: in vivo, read-out: Vdss.
A short description of series [3]: Oral bioavailability in Sprague-Dawley rat at 10 mg/kg. As to conditions: in vivo.

For the compound `CS(=O)(=O)c1cc(CNC(=O)c2cncc3c2cnn3-c2ccc(F)cc2)ccn1`, the CL in series [1] is 8%. Also, the Vd in series [2] turned out to be 1.2 L/kg. This compound also came in with a bioavailability in series [3] of 29%.

The record behind these values is ChEMBL document CHEMBL4330105, “Identification of novel azaindazole CCR1 antagonist clinical candidates” (Bioorg Med Chem Lett, 2019).
